Results reported in patent publication US20020161528A1, “Tool for lipophilicity determination in drug discovery basic and neutral compounds” (Pfizer Inc., priority 2001, published 2002).
Where two headings read alike, the source gives them in different places.

Legend:
[1] = pH 7.4, cited from earlier work
[2] = for log k′w / ElogDoct: pH 7.4
physchem = conditions: pH 7.4
[3] = Table 1, capacity factor extrapolated to 0% methanol, average of three to five determinations
[4] = Table 1, average of literature references only
[5] = Table 1, from log k′w by Equation 1

| Structure (SMILES) | log k′w [2, 3] | logDoct [1, 4] | chromatographic logD (physchem) | other results |
| --- | --- | --- | --- | --- |
| Oc1cc(Cl)cc(Cl)c1 [3,5-Dichiorophenol] | 3.44 | – | – | logDoct [1]: 3.68; Res (logDoct − ElogDoct) ([2]; Table 1): −0.40; ElogDoct [2]: 4.08 |
| Brc1cnc2ccccc2c1 [3-Bromoquinoline] | 2.53 | 3.03 | – | – |
| Oc1cccc(Cl)c1 [3-Chlorophenol] | 2.58 | – | 3.11 | Res (logDoct − ElogDoct) ([2]; Table 1): −0.61 |
| CC(=O)Nc1ccc(O)cc1 [Acetominophen] | 0.15 | – | – | Res (logDoct − ElogDoct) ([2]; Table 1): 0.13; ElogDoct [2, 5]: 0.38 |
| CC(=O)c1ccccc1 [Acetophenone] | 1.21 | – | 1.57 | – |
| C=CCc1ccccc1OCC(O)CNC(C)C (stereo not shown) [Alprenolol] | 0.37 | – | 0.62 | – |
| CCCCc1oc2ccccc2c1C(=O)c1cc(I)c(OCCN(CC)CC)c(I)c1 [Amiodarone] | 5.10 | – | – | – |
| CCOC(=O)C1=C(COCCN)NC(C)=C(C(=O)OC)C1c1ccccc1Cl (stereo not shown) [Amlodipine] | – | – | 2.15 | – |
| CN1[C@@H]2CC[C@H]1C[C@@H](OC(=O)C(CO)c1ccccc1)C2 (stereo partly shown) [Atropine] | – | – | – | log k′w [2]: −0.33 |
| c1ccc(-c2ccc(C(c3ccccc3)n3ccnc3)cc2)cc1 (stereo not shown) [Bifonazole] | 4.33 | 4.77 | 5.09 | – |
| O=C1CN=C(c2ccccn2)c2cc(Br)ccc2N1 [Bromazepam] | 1.04 | 1.65 | 1.38 | Res (logDoct − ElogDoct) ([2]; Table 1): 0.27 |
| NC(=O)N1c2ccccc2C=Cc2ccccc21 [Carbamazepine] | 1.40 | 2.19 | – | – |
| CN(C)CCC(c1ccc(Cl)cc1)c1ccccn1 (stereo not shown) [Chlorpheniramine] | 1.20 | – | – | – |
| CN(C)CCCN1c2ccccc2Sc2ccc(Cl)cc21 [Chlorpromazine] | 2.66 | – | 3.2 | – |
| NS(=O)(=O)c1cc(C2(O)NC(=O)c3ccccc32)ccc1Cl (stereo not shown) [Chlorthalidone] | 0.76 | – | 1.06 | – |
| Clc1cccc(Cl)c1N=C1NCCN1 [Clonidine] | 0.07 | 0.62 | 0.29 | – |
| Clc1ccccc1C(c1ccccc1)(c1ccccc1)n1ccnc1 [Clotrimazole] | 4.03 | – | 4.75 | – |
| CN1CCN(C2=Nc3cc(Cl)ccc3Nc3ccccc32)CC1 [Clozapine] | – | – | 3.38 | – |
| COC(=O)[C@H]1[C@@H](OC(=O)c2ccccc2)C[C@@H]2CC[C@H]1N2C [Cocaine] | – | 1.05 | 0.48 | Res (logDoct − ElogDoct) ([2]; Table 1): 0.57 |
| COc1ccc2c3c1O[C@H]1[C@@H](O)C=C[C@H]4[C@@H](C2)N(C)CC[C@@]341 [Codeine] | 0.16 | 0.23 | 0.39 | Res (logDoct − ElogDoct) ([2]; Table 1): −0.16 |
| C[C@@H]1C[C@H]2[C@@H]3CCC4=CC(=O)C=C[C@]4(C)[C@@]3(F)[C@@H](O)C[C@]2(C)[C@@]1(O)C(=O)CO [Dexamethasone] | – | 1.83 | 2.03 | – |
| CN1C(=O)CN=C(c2ccccc2)c2cc(Cl)ccc21 [Diazepam] | – | – | – | log k′w [2]: 2.46 |
| CC/C(=C(/CC)c1ccc(O)cc1)c1ccc(O)cc1 [Diethylstilbestrol] | 4.12 | 5.07 | 4.85 | – |
| CN(C)CCOC(c1ccccc1)c1ccccc1 [Diphenhydramine] | 1.04 | – | – | – |
| C[C@]12CC[C@@H]3c4ccc(O)cc4CC[C@H]3[C@@H]1CC[C@@H]2O [Estradiol] | – | – | 3.9 | – |
| O=C(NCC1CCCCN1)c1cc(OCC(F)(F)F)ccc1OCC(F)(F)F (stereo not shown) [Flecainide] | 0.25 | – | 0.49 | – |
| COC1=CC(=O)C[C@@H](C)[C@]12Oc1c(Cl)c(OC)cc(OC)c1C2=O [Griseofulvin] | 1.73 | 2.18 | 2.16 | – |
| O=C(CCCN1CCC(O)(c2ccc(Cl)cc2)CC1)c1ccc(F)cc1 [Haloperidol] | 2.00 | – | 2.46 | – |

| Structure (SMILES) | log k′w [2, 3] | logDoct [1, 4] | chromatographic logD (physchem) | other results |
| --- | --- | --- | --- | --- |
| CC(=O)OCC(=O)[C@@]1(O)CC[C@H]2[C@@H]3CCC4=CC(=O)CC[C@]4(C)[C@H]3[C@@H](O)C[C@@]21C [Hydrocortisone-21 acetate] | 1.64 | – | – | logDoct [1]: 2.19; Res (logDoct − ElogDoct) ([2]; Table 1): 0.13; ElogDoct [2, 5]: 2.06 |
| C[C@]12CCC(=O)C=C1CC[C@@H]1[C@@H]2[C@@H](O)C[C@@]2(C)[C@H]1CC[C@]2(O)C(=O)CO [Hydrocortisone] | – | – | 1.49 | – |
| CN(C)CCCN1c2ccccc2CCc2ccccc21 [Imipramine] | 1.56 | – | – | – |
| CCN(CC)CC(=O)Nc1c(C)cccc1C [Lidocaine] | 0.96 | – | – | – |
| CCOC(=O)N1CCC(=C2c3ccc(Cl)cc3CCc3cccnc32)CC1 [Loratadine] | 4.02 | – | – | – |
| O=C1Nc2ccc(Cl)cc2C(c2ccccc2Cl)=NC1O (stereo not shown) [Lorazepam] | 2.30 | – | 2.8 | Res (logDoct − ElogDoct) ([2]; Table 1): −0.29 |
| CN1C(=O)C(O)N=C(c2ccccc2Cl)c2cc(Cl)ccc21 (stereo not shown) [Lormetazepam] | 2.27 | 2.72 | 2.77 | Res (logDoct − ElogDoct) ([2]; Table 1): −0.05 |
| CSc1ncnc2c1ncn2[C@@H]1O[C@H](CO)[C@@H](O)[C@H]1O [Methylthioinosine] | 0.25 | – | – | logDoct [1]: 0.09; Res (logDoct − ElogDoct) ([2]; Table 1): −0.40; ElogDoct [2, 5]: 0.49 |
| COCCc1ccc(OCC(O)CNC(C)C)cc1 (stereo not shown) [Metoprolol] | −0.73 | – | -0.62 | – |
| Cc1ncc([N+](=O)[O-])n1CCO [Metronidazole] | −0.08 | −0.02 | 0.12 | – |
| CN1CC[C@]23c4c5ccc(O)c4O[C@H]2[C@@H](O)C=C[C@H]3[C@H]1C5.O=S(=O)(O)O [Morphine sulfate] | – | – | – | log k′w [2]: 0.10 |
| c1ccc2ccccc2c1 [Naphthalene] | 3.03 | – | 3.62 | – |
| O=[N+]([O-])c1ccc(/C=N/O)o1 [Nifuroxime] | 1.14 | 1.28 | 1.49 | – |
| NC(=O)N/N=C/c1ccc([N+](=O)[O-])o1 [Nitrofurazone] | 0.29 | 0.23 | 0.53 | – |
| CNC(=C[N+](=O)[O-])NCCSCc1csc(CN(C)C)n1 [Nizatidine] | −0.13 | −0.52 | 0.06 | – |
| COc1ccc2[nH]c([S+]([O-])Cc3ncc(C)c(OC)c3C)nc2c1 (stereo not shown) [Omeprazole] | – | – | 2 | – |
| CC(=O)CCCCn1c(=O)c2c(ncn2C)n(C)c1=O [Pentoxifylline] | 0.03 | 0.29 | 0.24 | – |
| C[C@]12C=CC(=O)C=C1CC[C@@H]1[C@@H]2[C@@H](O)C[C@@]2(C)[C@H]1CC[C@]2(O)C(=O)CO [Prednisolone] | 1.24 | – | 1.6 | – |
| C[C@]12C=CC(=O)C=C1CC[C@@H]1[C@@H]2C(=O)C[C@@]2(C)[C@H]1CC[C@]2(O)C(=O)CO [Prednisone] | 0.90 | – | 1.22 | – |
| CCN(CC)CCNC(=O)c1ccc(N)cc1 [Procainamide] | −0.69 | – | -0.57 | – |
| c1ccc2ncccc2c1 [Quinoline] | 1.52 | – | 1.92 | logDoct [1]: 2.03 |
| Cc1nc2n(c(=O)c1CCN1CCC(c3noc4cc(F)ccc34)CC1)CCCC2 [Risperidone] | 1.23 | – | 1.59 | Res (logDoct − ElogDoct) ([2]; Table 1): 0.45 |
| CC(C)NCC(O)c1ccc(NS(C)(=O)=O)cc1 (stereo not shown) [Sotalol] | −1.47 | – | -1.45 | – |
| C[C@]12CC[C@H]3[C@@H](CCC4=CC(=O)CC[C@@]43C)[C@@H]1CC[C@@H]2O [Testosterone] | 2.63 | 3.29 | – | Res (logDoct − ElogDoct) ([2]; Table 1): 0.12; ElogDoct [2]: 3.17 |
| CSc1ccc2c(c1)N(CCC1CCCCN1C)c1ccccc1S2 (stereo not shown) [Thioridazine] | 2.88 | – | 3.45 | – |
| Cc1cccc(N(C)C(=S)Oc2ccc3ccccc3c2)c1 [Tolnaftate] | 4.53 | – | – | – |
| Nc1nc(N)c2nc(-c3ccccc3)c(N)nc2n1 [Triamterene] | 0.71 | – | 1.01 | – |
